In PMC6410080 (Viruses, 2019):
Where a name gives a salt, the structure may show the parent alone. Read-outs that look alike come from different tables or passages of the source.

Key:
H5N1 VLP = experiment: microbe, parasite or virus in culture; type: cell-based, influenza H5N1; conditions: Influenza A virus, H5N1, HeLa Kyoto, 48 h, read-out: IC50 H5N1
SFV E1 trimer formation = conditions: HeLa Kyoto, MOI 100; Chloroquine 100 μM
HCV = experiment: microbe, parasite or virus in culture; type: cell-based, hepatitis C virus; conditions: Hepatitis C virus, Huh7.5, read-out: IC50 HCV
VACV = experiment: microbe, parasite or virus in culture; type: cell-based, vaccinia virus; conditions: for IC50: Orthopoxvirus vaccinia, HeLa Kyoto, 8 h, read-out: IC50 VACV
in vitro [1] = conditions: human
HeLa Kyoto cells = conditions: human
in vivo = conditions: CD1, mouse
SFV [2] = type: cell-based, Semliki Forest virus
[3] = system: Renilla luciferase expression (protein synthesis); type: cell-based
in vitro [4] = conditions: human; remark: listed apart in the source
SINV = experiment: microbe, parasite or virus in culture; type: cell-based, Sindbis virus; conditions: Sindbis virus, HeLa Kyoto, read-out: IC50 SINV
RABV VLP = experiment: microbe, parasite or virus in culture; type: cell-based, rabies virus; conditions: Lyssavirus rabies, HeLa Kyoto, 24 h, read-out: IC50 RABV
DENV-3 = experiment: microbe, parasite or virus in culture; type: cell-based, dengue virus; conditions: Dengue virus, DENV3, Huh-7, read-out: IC50 DENV-3
ZIKV [5] = experiment: microbe, parasite or virus in culture; type: cell-based, Zika virus; conditions: Zika virus, Huh-7, read-out: IC50 ZIKV
SFV [6] = experiment: microbe, parasite or virus in culture; type: cell-based, Semliki Forest virus; conditions: Semliki Forest virus; for IC50: HeLa Kyoto, read-out: IC50 SFV (7 h); for inhibition at 10 µM: M-HeLa, 7 h, read-out: % inhibition (SFV screen)
[7] = system: DID-labelled SFV hemifusion/fusion; type: cell-based, Semliki Forest virus; conditions: HeLa Kyoto, 10 μM (20 μM Raloxifene; Bafilomycin 100 nM), 40 min at 37 °C
VSV VLP = experiment: microbe, parasite or virus in culture; type: cell-based, vesicular stomatitis virus; conditions: Vesicular stomatitis virus, HeLa Kyoto, 24 h, read-out: IC50 VSV
VSV_Blam_VLP fusion = experiment: microbe, parasite or virus in culture; type: cell-based; conditions: Vesicular stomatitis virus, HeLa Kyoto, read-out: Inhibition of VSV_Blam_VLP fusion compared to DMSO controls
Huh7 cells [8] = experiment: MTT assay, Huh7 cells
viruses/VLPs tested = type: cell-based
HSV-1 = experiment: microbe, parasite or virus in culture; type: cell-based, herpes simplex virus 1; conditions: 8 h; for IC50: Human alphaherpesvirus 1, Vero, read-out: IC50 HSV (Vero)
SFV internalisation = type: cell-based, Semliki Forest virus
DENV-1 = experiment: microbe, parasite or virus in culture; type: cell-based, dengue virus; conditions: Dengue virus, DENV1, Huh-7, read-out: IC50 DENV-1
DENV-2 = DENV-2 infection assay / secondary screen (E protein staining); type: cell-based, dengue virus serotype 2; conditions: Dengue virus, DENV2, Huh-7, 24 h; for inhibition at 10 µM: read-out: % inhibition (DENV-2 screen)
YF17D = experiment: organism not typed; type: cell-based, yellow fever 17D; conditions: Huh-7, read-out: IC50 YF17D
EBOV VLP = experiment: microbe, parasite or virus in culture; type: cell-based, Ebola virus; conditions: Zaire ebolavirus, HeLa Kyoto, 48 h, read-out: IC50 EBOV
HIV-1 = experiment: microbe, parasite or virus in culture; type: cell-based, human immunodeficiency virus type 1; conditions: for IC50: Human immunodeficiency virus 1, 24 h, read-out: IC50 HIV
ZIKV [9] = conditions: AG129 mice; for Infectious virus in the blood at day 7 p.i.: immunofocus assay
[10] = mouse, in vivo; cited from earlier work
Huh7 cells [11] = conditions: human
[12] = 10 mg/kg
[13] = read-out: IC50 DENV-2 (7 + 17 h)

O=C(Nc1ccc([N+](=O)[O-])cc1Cl)c1cc(Cl)ccc1O [Niclosamide]
IC50 (H5N1 VLP): 1.4 µM
SFV E1 trimer formation (SFV E1 trimer formation): No trimers were observed
IC50 (HCV): 0.2 µM
IC50 (VACV): 3 µM
viability at 10 µM (in vitro [1]): 36.9%
TC50 SFV (7 h) (HeLa Kyoto cells): >50 µM
TC50 SFV (7h) (HeLa Kyoto cells): >50000 µM
Peak blood concentration (CD1, mouse, in vivo): 40 µM
Blood level after 2 h (mouse, in vivo): undetectable
Tmax (in vivo; ip, 10 mg/kg): 15 min
Activity when added before SFV or 30 and 60 min after internalisation (SFV [2]): minor but reproducible decrease in activity
Time of Addition (SFV [2]): Before and after fusion
Decrease of Renilla signal (protein synthesis) [3]: more than 50%
viability at 10 µM (in vitro [4]; % viability (SFV screen)): 104%
IC50 (SINV): 2.8 µM
IC50 (RABV VLP): 1.3 µM
IC50 (DENV-3): 1.6 µM
IC50 (ZIKV [5]): ~0.7 µM
IC50 (SFV [6]): 3 µM
inhibition at 10 µM (SFV [6]): 73.1%
Inhibition of DID-SFV de-quenching (in words) [7]: Strong inhibition of de-quenching
IC50 (VSV VLP): 3.5 µM
inhibition at 10 µM (VSV_Blam_VLP fusion): > 50%
TC50 DENV-2 (7 + 17 h) (Huh7 cells [8]; Huh7, compounds 7 h then compound-free media 17 h): >50 µM
TC50 DENV-2 (24 h) (Huh7 cells [8]; Huh7, compounds 24 h): 12.8 µM
Viruses Inhibited (viruses/VLPs tested): All tested
IC50 (HSV-1): 1.3 µM
Internalised SFV E1/E2 after subtilisin treatment (SFV internalisation): Loss of E1/E2
Kinetics of SFV internalisation (subtilisin resistance) (SFV internalisation): remained lower compared to untreated control
IC50 (DENV-1): 1.5 µM
inhibition at 10 µM (DENV-2): 75.4%
IC50 (DENV-2; [13]): 1.1 µM
IC50 (DENV-2; read-out: IC50 DENV-2 (24 h)): 0.4 µM
IC50 (YF17D): < 0.3 µM
IC50 (EBOV VLP): 2.9 µM
IC50 (HIV-1): 3.3 µM

CC[C@@]1([C@@H]2O[C@@H]([C@H]3O[C@@](O)(CO)[C@H](C)C[C@@H]3C)C[C@@H]2C)CC[C@H]([C@]2(C)CC[C@]3(C[C@H](O)[C@@H](C)[C@@H]([C@@H](C)[C@@H](OC)[C@H](C)C(=O)O)O3)O2)O1 [Monensin, Monensin sodium salt]
IC50 (H5N1 VLP): 0.9 µM
SFV E1 trimer formation (SFV E1 trimer formation): prevented trimer formation
IC50 (HCV): 2.5 µM
IC50 VACV (VACV): No inhibition
viability at 10 µM (in vitro [1]): 81%
TC50 SFV (7 h) (HeLa Kyoto cells; 7 h): >50 µM
TC50 SFV (7h) (HeLa Kyoto cells; 7 h): >50000 µM
Activity when added before SFV or 30 and 60 min after internalisation (SFV [2]): progressive and more dramatic decrease in activity
viability at 10 µM (in vitro [4]; % viability (SFV screen)): 108%
IC50 (SINV): 0.4 µM
IC50 (RABV VLP): 0.8 µM
IC50 (DENV-3): ~3.6 µM
IC50 (ZIKV [5]): 5.5 µM
IC50 (SFV [6]): 1.1 µM
inhibition at 10 µM (SFV [6]): 81.4%
IC50 (VSV VLP): 0.7 µM
inhibition at 10 µM (VSV_Blam_VLP fusion): > 50%
Infectious virus in the blood at day 7 p.i. (ZIKV [9]): cleared infectious virus from the blood by day 7
ZIKV blood titres at day 1 p.i. (ZIKV [9]; qRT-PCR and immunofocus assay, vs untreated): significantly reduced blood titres
IC50 HSV (Vero) (HSV-1; virus, Vero cells): No inhibition
IC50 (DENV-1): 6.2 µM
inhibition at 10 µM (DENV-2): 100%
IC50 (DENV-2; [13]): 4.5 µM
IC50 (DENV-2; read-out: IC50 DENV-2 (24 h)): 3.8 µM
IC50 (YF17D): < 0.3 µM
IC50 (EBOV VLP): 4.5 µM
IC50 HIV (HIV-1; virus, HeLa TZM-bl, 24 h): No inhibition
Well tolerated dose [10]: up to 70 mg/kg
TC50 DENV-2 (7 + 17 h) (Huh7 cells [11]): >50 µM
TC50 DENV-2 (24 h) (Huh7 cells [11]; 24 h): >50 µM

CC(C)(C)c1cc(C=C(C#N)C#N)cc(C(C)(C)C)c1O [Tyrphostin A9]
IC50 (H5N1 VLP): < 0.5 µM
SFV E1 trimer formation (SFV E1 trimer formation): No trimers were observed
IC50 (HCV): < 0.3 µM
IC50 (VACV): 3.4 µM
viability at 24 h, 10 µM (in vitro [1]): 50.5%
Blood peak (Tyrphostin A9 1 mg/kg IP): 5 µM
Peak blood concentration (Tyrphostin A9 1 mg/kg PO, CD1 mice): 1.52 µM
concentration at 2 h (in vivo; 1 mg/kg): 20 nM
concentration at 8 h (in vivo; 1 mg/kg): 760 nM
Tmax (in vivo; po, 1 mg/kg): 60 min
Activity when added before SFV or 30 and 60 min after internalisation (SFV [2]): minor but reproducible decrease in activity
Time of Addition (SFV [2]): Before and after fusion
Decrease of Renilla signal (protein synthesis) [3]: more than 50%
viability at 10 µM (in vitro [4]): 105%
IC50 (SINV): ~0.8 µM
IC50 (RABV VLP): 1.4 µM
IC50 (DENV-3): 1.2 µM
IC50 (ZIKV [5]): < 0.3 µM
IC50 (SFV [6]): 2.9 µM
inhibition at 10 µM (SFV [6]): 73.5%
Inhibition of DID-SFV de-quenching (in words) [7]: Strong inhibition of de-quenching
IC50 (VSV VLP): 4.1 µM
inhibition at 10 µM (VSV_Blam_VLP fusion): > 50%
ZIKV blood titres at days 1 and 3 (ZIKV [9]; Tyrphostin A9 1 mg/kg PO, vs untreated): only minor and non significant differences
Infectious virus in the blood at day 7 p.i. (ZIKV [9]): infectious virus was detected in only two of six mice
ZIKV-infected CD14+CD11c+ dendritic cells in blood, day 7 p.i. (ZIKV [9]; without statistical significance): fewer infected CD14+CD11c+ dendritic cells
Reason for suspending administration (ZIKV [9]; Tyrphostin A9 1 mg/kg PO, after the fourth administration): toxicity and weight loss
Viruses Inhibited (viruses/VLPs tested): All tested
IC50 (HSV-1): 1.5 µM
Internalised SFV E1/E2 after subtilisin treatment (SFV internalisation): Loss of E1/E2
IC50 (DENV-1): 1.4 µM
inhibition at 10 µM (DENV-2): 99.7%
IC50 (DENV-2; [13]): 1.2 µM
IC50 (DENV-2; read-out: IC50 DENV-2 (24 h)): 0.4 µM
Toxicity [12]: toxicity
IC50 (YF17D): < 0.3 µM
IC50 (EBOV VLP): 3.2 µM
IC50 (HIV-1): 1.1 µM
TC50 DENV-2 (7 + 17 h) (Huh7 cells [11]): >50 µM
TC50 DENV-2 (24 h) (Huh7 cells [11]): 28.5 µM
